Reference: patent publication EP4011353A1 (Beiersdorf AG, priority 2020, dated 2022)

Assays:
Type in all cases: physicochemical
[1] = degradation of ascorbic acid after addition of water or ethanol to the eutectic liquid; conditions: addition of water or ethanol up to 15%, preferably up to 10%
Excerpt: This liquid, stable at room temperature, can be incorporated into cosmetic formulas.

[2] = degradation of vitamin C at 40°C over 16 weeks, eutectic solvent compared to water (figure 1); conditions: 5 % vitamin C in eutectic solvent (5% vitamin C, 40% betaine, 55% glycerol) compared to water, 40 degrees
[3] = color stability of vitamin C in closed and open glass flasks after 3 months at room temperature (figure 2)

O=C1O[C@H]([C@@H](O)CO)C(O)=C1O [vitamin C, ascorbic acid]
degradation of the ascorbic acid [1]: without increased degradation
degradation of vitamin C [2]: enhanced protection
stability of vitamin C ([3]; 21% vitamin C in water, closed bottles): unstable
stability of vitamin C ([3]; 21% vitamin C in water, opened glass bottles): unstable
stability of vitamin C ([3]; in betaine and glycerol (21% vitamin C, 29% betaine, 50% glycerin), closed bottles): stable
